Among the data in paper PMC2173257 (The Journal of Cell Biology, 2002) are IC50 values, retold here.

One assay has as its target Kes1p^LH201/202FN (Saccharomyces cerevisiae, UniProt P35844, L201F/H202N). Description: competitive displacement of photo-probe from purified mutant protein. It counts as binding.
For the next assay, the target named is Kes1p (Saccharomyces cerevisiae, UniProt P35844). The assay can be described thus: competitive displacement of [3H]BZDC-PI. It counts as binding. (In general: Displacement assays read how much labelled ligand stays bound in the presence of the test substance.)

For the substance PI(4,5)P2, the IC50 stood at 6.1 µM on Kes1p^LH201/202FN and 1900 nM on Kes1p.

In general, IC50 refers to the concentration that inhibits the measured activity by half.
